This is an account of results in patent US11999727B2 (Tango Therapeutics, Inc., priority 2020, dated 2024).

Assay [1] deals with T1, PRMT5 (Homo sapiens, UniProt O14744).
T1 construct: purchased Viva (custom protein)
Put plainly: PRMT5 biochemical IC50 assay with no cofactor. The following applies: PRMT5, no cofactor; read-out: No Cofactor/rel IC50. From the text: Table 1 indicates IC50 values (μM) against PRMT5 for exemplary compounds in the presence of SAM as cofactor, with no cofactor, and with MTA as cofactor, respectively (columns 4-6). […] Ki values can be calculated from the IC50 values as described in the Examples section. As detailed in the Examples section, for the assay performed in the presence of SAM, IC50=Ki×1.5 (Ki=IC50/1.5).

Assay [2] relates to HAP1 MTAP-deleted cell line. As to the kind of experiment: Viability assay, MTAP-deleted cell line. The following applies: Homo sapiens, HAP1, viability assay, MTAP-deleted cell line; read-out: HAP1 MTAP deleted viability. It counts as cell-based. From the text: Table 1 additionally indicates IC50 values in a viability assay for the MTAP-deleted cell line (column 10), indicating the effect of treatment with compound on cell survival.

In assay [3] the test system is HAP1 MTAP-deleted cell line. As to the kind of experiment: SDMA in-cell western assay, HAP1 MTAP-deleted. It counts as cell-based. The following applies: for IC50: Homo sapiens, HAP1, SDMA in-cell western, HAP1 MTAP-deleted, read-out: HAP1 MTAP deleted IC50; for MTAP intact/deleted ratio: IC50 ratio HAP1 MTAP-intact vs HAP1 MTAP-deleted, SDMA in-cell western. The method in brief: (§1)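 Readout: in-cell western detection of SDMA. Cells: HAP1 expressing endogenous MTAP and an MTAP-null HAP1 counterpart. Output: IC50.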

Assay [4] has as its target T1, PRMT5. As to the kind of experiment: PRMT5 biochemical IC50 assay with SAM as cofactor. The following applies: PRMT5, SAM as cofactor; read-out: SAM IC50.
In assay [5] the target is T1, PRMT5. Put plainly: PRMT5 biochemical IC50 assay with MTA as cofactor. The following applies: PRMT5, MTA as cofactor; read-out: MTA IC50.
Assay [6] deals with HAP1 MTAP-intact cell line. As to the kind of experiment: SDMA in-cell western assay, HAP1 MTAP-intact. It counts as cell-based. The following applies: Homo sapiens, HAP1, SDMA in-cell western, HAP1 MTAP-intact; read-out: MTAP HAP1 intact IC50. The method, boiled down:
as §1

T1 sequence (O14744 whole entry): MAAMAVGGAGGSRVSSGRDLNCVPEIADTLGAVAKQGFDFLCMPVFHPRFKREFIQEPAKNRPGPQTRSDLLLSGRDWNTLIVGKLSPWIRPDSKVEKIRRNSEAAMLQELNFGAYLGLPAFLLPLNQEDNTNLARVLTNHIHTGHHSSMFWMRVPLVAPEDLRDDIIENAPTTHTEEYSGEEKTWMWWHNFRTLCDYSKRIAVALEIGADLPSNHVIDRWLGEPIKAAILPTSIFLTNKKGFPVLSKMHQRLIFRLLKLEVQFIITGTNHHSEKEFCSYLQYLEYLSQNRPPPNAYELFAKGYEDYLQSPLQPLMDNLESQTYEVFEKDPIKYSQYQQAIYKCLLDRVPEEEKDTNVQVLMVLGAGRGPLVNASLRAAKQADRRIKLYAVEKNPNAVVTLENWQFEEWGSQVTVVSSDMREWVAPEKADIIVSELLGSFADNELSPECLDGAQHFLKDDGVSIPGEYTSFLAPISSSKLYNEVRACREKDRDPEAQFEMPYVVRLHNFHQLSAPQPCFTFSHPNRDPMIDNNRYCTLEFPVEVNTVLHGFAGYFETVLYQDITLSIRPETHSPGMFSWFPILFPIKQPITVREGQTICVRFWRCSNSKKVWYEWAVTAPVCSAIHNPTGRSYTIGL
T1 sequence (Q9BQA1 whole entry partner): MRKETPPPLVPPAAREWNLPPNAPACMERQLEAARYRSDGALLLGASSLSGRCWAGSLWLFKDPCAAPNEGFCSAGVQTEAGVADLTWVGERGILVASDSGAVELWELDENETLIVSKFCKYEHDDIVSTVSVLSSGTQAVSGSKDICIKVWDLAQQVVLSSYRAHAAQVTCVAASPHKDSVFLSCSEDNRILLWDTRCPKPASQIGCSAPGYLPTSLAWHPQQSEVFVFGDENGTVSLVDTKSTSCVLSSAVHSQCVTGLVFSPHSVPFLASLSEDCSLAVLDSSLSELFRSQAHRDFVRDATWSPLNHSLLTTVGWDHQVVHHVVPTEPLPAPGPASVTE

Take `CCc1cc(NC(=O)C(=O)N2C[C@@H](C)CC[C@@H]2c2ccc3sc(CN4CCOCC4)nc3c2)cnc1N` [Compound 1092, N-(6-amino-5-ethylpyridin-3-yl)-2-((2R,5S)-5-methyl-2-(2-(morpholinomethyl)benzo[d]thiazol-5-yl)piperidin-1-yl)-2-oxoacetamide]: the IC50 on PRMT5 [1] was < 50 nM; in assay [2], < 1000 nM; in assay [3], < 100 nM; on PRMT5 [4], 50 to 500 nM; on PRMT5 [5], < 50 nM; in assay [6] it was 100 to 1000 nM. In addition, in assay [3], the MTAP intact/deleted ratio result is “A (an IC50 ratio greater than or equal to 10 fold)”.

As for `CC(=O)N1CCC(c2nc3cc([C@H]4CC[C@H](C)CN4C(=O)C(=O)Nc4cnc(N)c(C)c4)ccc3s2)CC1` [Compound 1093, 2-((2R,5S)-2-(2-(1-acetylpiperidin-4-yl)benzo[d]thiazol-5-yl)-5-methylpiperidin-1-yl)-N-(6-amino-5-methylpyridin-3-yl)-2-oxoacetamide], the IC50 at PRMT5 [1] was < 50 nM; in assay [2], < 1000 nM; in assay [3], < 100 nM; at PRMT5 [4] it was < 50 nM; on PRMT5 [5], < 50 nM; in assay [6] it was < 100 nM. In assay [3], the MTAP intact/deleted ratio entry is “A (an IC50 ratio greater than or equal to 10 fold)”.

For the compound `CCc1cc(NC(=O)C(=O)N2C[C@@H](C)CC[C@@H]2c2ccc3sc(CCN4CCCC4)nc3c2)cnc1N` [Compound 1095, N-(6-amino-5-ethylpyridin-3-yl)-2-((2R,5S)-5-methyl-2-(2-(2-(pyrrolidin-1-yl)ethyl)benzo[d]thiazol-5-yl)piperidin-1-yl)-2-oxoacetamide], the IC50 on PRMT5 [1] was < 50 nM; in assay [2] it was < 1000 nM; in assay [3], < 100 nM; at PRMT5 [4] it was < 50 nM; at PRMT5 [5], < 50 nM; in assay [6] it was < 100 nM. Moreover, the MTAP intact/deleted ratio result in assay [3] is “A (an IC50 ratio greater than or equal to 10 fold)”.

Consider `CCc1cc(NC(=O)C(=O)N2C[C@@H](C)CC[C@@H]2c2ccc3sc(C4CCN(C)CC4)nc3c2)cnc1C` [Compound 1100, N-(5-ethyl-6-methylpyridin-3-yl)-2-((2R,5S)-5-methyl-2-(2-(1-methylpiperidin-4-yl)benzo[d]thiazol-5-yl)piperidin-1-yl)-2-oxoacetamide], for which the IC50 at PRMT5 [1] is < 50 nM; in assay [2], < 1000 nM; in assay [3], < 100 nM; on PRMT5 [4] it was < 50 nM; at PRMT5 [5], < 50 nM; in assay [6], 100 to 1000 nM. The MTAP intact/deleted ratio entry in assay [3] was “A (an IC50 ratio greater than or equal to 10 fold)”.

With `CCc1cc(NC(=O)C(=O)N2C[C@@H](C)CC[C@@H]2c2ccc3sc([C@H]4C[C@H](N(C)C)C4)nc3c2)cnc1N` [Compound 1101, N-(6-amino-5-ethylpyridin-3-yl)-2-((2R,5S)-2-(2-(3-(dimethylamino)cyclobutyl)benzo[d]thiazol-5-yl)-5-methylpiperidin-1-yl)-2-oxoacetamide], the IC50 on PRMT5 [1] was < 50 nM; in assay [2], < 1000 nM; in assay [3], < 100 nM; at PRMT5 [4], < 50 nM; at PRMT5 [5] it was < 50 nM; in assay [6], < 100 nM. In assay [3], the MTAP intact/deleted ratio result was “A (an IC50 ratio greater than or equal to 10 fold)”.

As to `Cc1ncc(NC(=O)C(=O)N2C[C@@H](C)CC[C@@H]2c2ccc3sc(C4CCN(C)CC4)nc3c2)cc1Cl` [Compound 1102, N-(5-chloro-6-methylpyridin-3-yl)-2-((2R,5S)-5-methyl-2-(2-(1-methylpiperidin-4-yl)benzo[d]thiazol-5-yl)piperidin-1-yl)-2-oxoacetamide], the IC50 on PRMT5 [1] was < 50 nM; in assay [2] it was < 1000 nM; in assay [3], < 100 nM; on PRMT5 [4], < 50 nM; at PRMT5 [5], < 50 nM; in assay [6], 100 to 1000 nM. Further, the MTAP intact/deleted ratio entry in assay [3] is “A (an IC50 ratio greater than or equal to 10 fold)”.
